Experimental data taken from patent US6884818B1, “Pharmaceutical compositions containing 8-chloro-3 (β-diethylaminoethyl)-4-methyl-7-ethoxycarbonylmethoxy coumarin base and the salts thereof with cholesterol-lowering activity” (Fidia Farmaceutici S.p.A., priority 1999, dated 2005).

Assays:
[1] = system: hypercholesterolaemic-diabetic rabbits; assay: Test No. 1: tolerability and cholesterol-lowering effect in rabbits on 1% cholesterol diet with alloxan-induced diabetes; assay type: in vivo, rabbit; conditions: for body weight curve: treated chronically for 4-5 weeks, weighed weekly, versus untreated control group (FIG. 1)
Description: A preliminary experiment was performed to assess the ability of cloricromene to reduce plasma levels of cholesterol and triglycerides in rabbits fed on a high-fat diet, treated chronically for 4-5 weeks. As reference product we used scoparone, as it is the only coumarin derivative of vegetable origin with a documented effect on these parameters.
The experimental model induces high levels of cholesterol and triglycerides in the plasma by a 1% cholesterol-enriched diet, simultaneously inducing diabetes by injection of alloxan, a highly toxic product for the β cells of the pancreas. In this way, it is possible to reach very high values of cholesterol and triglycerides in the system rapidly. The body weight of the animals and the plasma levels of the test parameters were assessed weekly throughout the experiment.

[2] = system: hypercholesterolaemic-diabetic rabbits; assay: Test No. 2: weekly cholesterol levels in rabbits with alloxan diabetes on 1% cholesterol diet; assay type: in vivo
Excerpt: In the same experimental model, in which a diabetic pathology is induced by treating the animals with alloxan, and hypercholesterolaemia is induced by administering a 1% cholesterol diet, we monitored at weekly intervals the cholesterol levels of the rabbits, which had been divided into the following treatment groups: • 1. Control, treated with saline solution • 2. Scoparone • 3. Cloricromene

[3] = system: patients with Peripheral Vascular Disease (PVD) at Fontaine stage II; assay: Multicentre, double-blind, randomised, placebo-controlled study in patients with Peripheral Vascular Disease (Fontaine stage II); assay type: in vivo, human
Excerpt: We conducted a multicentre, double-blind, randomised study, controlled versus placebo, on 159 patients with Peripheral Vascular Disease (PVD) at Fontaine stage II, the classic symptom of which is Intermittent Claudication (IC).
In our study, besides assessing the effect of cloricromene on IC, we also studied the cholesterol-lowering effects of the drug and the incidence of major cardiovascular events (myocardial infarction, stroke, vascular death, progression to Fontaine stages III-IV) after a treatment period of six months.
In analysing the cholesterol-lowering effect, 117 patients were considered who presented cholesterol values at baseline of over 190 mg/dI.
The critical value of 190 mg/dl was selected on the basis of data from the international literature that report this value as the risk threshold in pathologies such as cardiac ischaemia and atherosclerosis in general, in which excessive cholesterol represents a real risk factor. Therefore, the patients who presented cholesterol values equal to or over 190 mg/dl were considered to be at risk from said pathologies.
For the purposes of this analysis, 58 patients were treated for 6 months with 200 mg of cloricromene per day (one capsule of 100 mg twice a day), while the remaining 59 patients were treated with placebo (Table). All the patients also took aspirin at a dose of 160 mg/day throughout the trial.

[4] = system: rabbits on a high-cholesterol diet; assay: Test No. 3: cholesterol levels in rabbits on 0.1% cholesterol diet without diabetes; assay type: in vivo, rabbit; conditions: cholesterol around 250 mg/dl, versus control group and scoparone group (FIG. 3)
Description: As further confirmation of this interesting result, we prepared another experimental model. In this case, hypercholesterolaemia was induced in rabbit by administration of a 0.1% cholesterol diet, without simultaneously inducing diabetes. In these experimental conditions, cholesterol levels of around 250 mg/dl were obtained, that is to say, values that are compatible with the pathological situation normally observed in humans affected by hypercholesterol. The rabbits were divided into three treatment groups: controls treated with saline, a second group receiving scoparone and a third receiving cloricromene.

[5] = 1% cholesterol diet + alloxan, 4-5 weeks, cloricromene group versus scoparone group

| SMILES | body weight curve ([1]; 1% cholesterol diet + alloxan) | number of animals that completed the treatment ([2]; end of experiment, scoparone group versus cloricromene group) | Cholesterol levels at week 24 ([3]; 58 patients with baseline cholesterol over 190 mg/dl, after 6 months of 200 mg cloricromene per day (100 mg capsule twice a day), plus aspirin 160 mg/day, p = 0.0035 vs week 0) | Cholesterol levels at Week 0 ([3]; 58 patients with baseline cholesterol over 190 mg/dl, baseline before 200 mg cloricromene per day, plus aspirin 160 mg/day) | difference in cholesterol between treatment groups (analysis of covariance) ([3]; cloricromene versus placebo, 6 months, p=0.04, α=0.05) | major cardiovascular events or deaths ([3]; patients, treatment period of six months) | plasma levels of cholesterol [1, 5] | plasma levels of triglycerides [1, 5] | toxic activity on repeated administration over long periods ([1]; repeated administration, in comparison to scoparone) | cholesterol levels [4] | cholesterol levels ([2]; 1% cholesterol diet + alloxan, versus saline control and scoparone, evident from third week of treatment (FIG. 2)) |
| --- | --- | --- | --- | --- | --- | --- | --- | --- | --- | --- | --- |
| COc1cc2ccc(=O)oc2cc1OC [scoparone] | marked and progressive reduction in body weight | considerably lower | – | – | – | – | – | – | – | – | – |
| CCOC(=O)COc1ccc2c(C)c(CCN(CC)CC)c(=O)oc2c1Cl [cloricromene, 8-chloro-3(β-diethylaminoethyl)-4-methyl-7-ethoxycarbonylmethoxy coumarin] | superimposable on that of the control group | – | 229 ± 32 | 243 ± 31 | statistically significant in favour of the group treated with cloricromene | no major cardiovascular events or deaths were observed | tended to be lower | tended to be lower | absolute lack of toxic activity | markedly lower | markedly lower than those of both the control group and that treated with scoparone |
